Molecular target: T1, α-glucosidase—Saccharomyces cerevisiae recombinant (Saccharomyces cerevisiae, UniProt P53341)
T1 construct: purchased Sigma G0660
Test: alpha glucosidase inhibitory activity assay (release of p-nitrophenol from p-nitrophenyl-α-D-glucoside)
Assay type: biochemical
Settings: end concentration in the well 0.8 mM; 'should cause about 50% inhibition'
Procedure: [drawing 1] wherein the α-glucosidase activity is measured by the release of p-nitrophenol, and as further set forth in Example 1.
Materials were tested for alpha glucosidase inhibitory activity as follows:
Materials: Standard laboratory equipment, 96 well half area plates with UV transparent bottom (Costar, 3679), 8 channel multi pipette (20 to 200 μl), and spectrophotometer, Spectra Max Plus (Molecular Devices).
Reagents: • (a) Distilled water • (b) Potassium dihydrogen phosphate • (c) Dimethylsulfoxide (Acros, 12779) • (d) α-glucosidase—Saccharomyces cerevisiae recombinant (min. 125 U/mg protein) (Sigma, G0660) • (e) p-nitrophenol-α-D-glucopyranoside (Sigma, N1377) • (f) Australine hydrochloride, castanospermum australe (Calbiochem, #189422) (reference inhibitor)
60 μl of reference inhibitor is needed per well)
Stock solution of the test sample is prepared using 142 mM potassium phosphate buffer (solubility of test sample can be improved using DMSO/potassium phosphate mixtures. The end concentration of DMSO should not exceed 1% v/v which corresponds to 1.66% DMSO in the sample stock solution. […]
Pipette with 8 channel multi-pipette 20 μl of the enzyme and mix well. […] The absorbance was measured at […].
For each concentration of potential inhibitor, the initial reaction velocity is calculated, being the initial slope of the absorbance vs. time data. […]

T1 sequence (P53341 whole entry): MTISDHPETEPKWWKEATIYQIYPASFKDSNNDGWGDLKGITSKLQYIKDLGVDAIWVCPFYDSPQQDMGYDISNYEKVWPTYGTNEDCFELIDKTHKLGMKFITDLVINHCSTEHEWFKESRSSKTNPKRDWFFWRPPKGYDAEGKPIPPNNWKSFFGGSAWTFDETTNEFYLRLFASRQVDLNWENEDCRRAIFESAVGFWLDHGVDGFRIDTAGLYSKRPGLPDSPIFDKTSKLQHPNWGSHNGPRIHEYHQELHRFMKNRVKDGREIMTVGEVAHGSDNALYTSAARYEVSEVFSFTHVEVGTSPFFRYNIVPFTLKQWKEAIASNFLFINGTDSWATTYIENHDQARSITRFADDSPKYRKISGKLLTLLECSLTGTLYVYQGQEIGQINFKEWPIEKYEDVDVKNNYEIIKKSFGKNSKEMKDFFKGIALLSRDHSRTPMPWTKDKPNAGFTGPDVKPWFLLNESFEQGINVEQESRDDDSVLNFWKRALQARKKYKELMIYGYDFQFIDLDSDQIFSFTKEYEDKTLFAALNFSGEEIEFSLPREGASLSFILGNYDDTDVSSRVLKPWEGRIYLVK

Cl.OC[C@@H]1[C@@H](O)[C@H](O)[C@H]2[C@@H](O)CCN21 [Australine HCl, Australine hydrochloride]
inhibition in the well (reference inhibitor): about 50%

From patent US9072717B2, “Cosmetic compositions containing alpha glucosidase inhibitors and methods of use” (ELC Management LLC, priority 2007, dated 2015)
